Data set [1] has as its system xylene-induced ear edema. Also on record: method as in PMID 16806590. The conditions noted are these: mice; cited from earlier work.
Data set [2] has as its system mice ear edema induced by 12-O-tetradecanoylphorbol 13-acetate. Kind of data set: Topical anti-inflammatory effect, 12-O-tetradecanoylphorbol 13-acetate (TPA) induced ear edema in mice. Format: in vivo. The conditions noted are these: 1.4 µmol/mouse, 6 h after TPA; for inhibition in vivo at 1.4 µmol/animal: n = 8, read-out: % TATPA ± SEM (percent reduction of the ear edema, TPA). Here is the method: (§1) The inflammatory agent arachidonic acid (AA) and phorbol 12-myristate 13-acetate (TPA) were used to assess the anti-inflammatory effect/action mechanism of the starting compounds, new synthetic products and reference drugs. […] Adult male CF-1 mice (20–25 g), obtained from a stock maintained at the Chilean Public Health Institute, were used to assess the anti-inflammatory effect. All animals were housed in a climate- and light-controlled room with a 12 h light-dark cycle, fasted overnight before the day of the assays, with free access to water. The anti-inflammatory activity of each compound was evaluated in groups of 8 treated and 16 control mice. Due to ethical considerations, the number of animals was kept to a minimum and single dose experiments were carried out.
(§2) The pro-inflammatory agents TPA and AA, the reference drugs indomethacin and nimesulide were from Sigma. […] After 5 min, inflammation was induced by the application of 20 µL TPA or AA (5 mg/mL) in acetone. […] Control subjects only received TPA or AA. Both, the sample and the TPA or AA, were applied to the inner (10 µL) and outer (10 µL) surfaces of the right ear. The left ear only received acetone. Mice were sacrificed by cervical dislocation (after 6 h of TPA and 1 h AA), and a 6 mm diameter section of the right and left ears were cut and weighed. The weight differences between both ear sections correspond to the edema value. The percent topical anti-inflammatory activity (TA) was evaluated according to the following equation: (1) %TA=[ Wc−Ws/Wc]× 100 where Wc and Ws are the different median values of the weights of the right and the left ear sections of the control and the treated animals, respectively.
(§3) For the animal experiments all values are presented as median ± SEM. Drug-induced changes were statistically estimated using the Kruskall-Wallis test for comparison between groups and testing, and the Mann-Whitney test was used in the independent data for individual comparisons. The effects were considered significant if p ≤ 0.05. For cytotoxicity experiments, each concentration was tested in quadruplicate together with the control and repeated three times in different experiments. Results are expressed as IC50 values (µM) ± S.D.

The test system of data set [3] is hepatocytes HepG2. Description: Cytotoxicity, MTT reduction assay, HepG2. Format: cell-based. The conditions noted are these: Homo sapiens, confluent cultures, 24 h, read-out: IC50 ± SD, HepG2. How it is done:
The human cell lines, MRC-5 normal lung fibroblasts (CCL-171), AGS gastric epithelial adenocarcinoma cells (CRL-1739) and HepG2 hepatocellular carcinoma cells (HB-8065) were obtained from the American Type Culture Collection (ATCC, Manasas, VA, USA). The cells were grown as monolayers in the following media: MRC-5 and HepG2 in MEM and AGS in Ham F-12. The MEM medium contained 2 mM L-glutamine, 1 mM sodium pyruvate and 1.5 g/L sodium bicarbonate. Ham F-12 was supplemented with 2 mM L-glutamine and 1.5 g/L sodium bicarbonate. Both media were supplemented with 10% heat inactivated fetal bovine serum, 100 IU/mL penicillin and 100 µg/mL streptomycin in a humidified incubator with 5% CO2 in air at 37 °C. For the experiments, cells were plated at a density of 25,000 cells/mL in 96-well plates. […] Compounds were first dissolved in DMSO and then in medium. The final concentration of DMSO in the test medium and controls was 1%. […] The cell viability for each compound was calculated comparing the cell viability of the untreated controls (100%) with the cell viability of the different concentrations of each compound. Each concentration was tested in quadruplicate together with the control and repeated three times in separate experiments. Cell viability was determined at the end of the incubation by means of the MTT reduction assay. […] Culture media, antibiotics and fetal bovine serum were obtained from Invitrogen Corp. (Waltham, MA, USA). Other reagents were purchased from Sigma Chemical Co. For the animal experiments all values are presented as median ± SEM. Drug-induced changes were statistically estimated using the Kruskall-Wallis test for comparison between groups and testing, and the Mann-Whitney test was used in the independent data for individual comparisons. The effects were considered significant if p ≤ 0.05. For cytotoxicity experiments, each concentration was tested in quadruplicate together with the control and repeated three times in different experiments. Results are expressed as IC50 values (µM) ± S.D.

Data set [4] relates to gastric epithelial cells (AGS). Kind of data set: Cytotoxicity, MTT reduction assay, AGS. Format: cell-based. The conditions noted are these: Homo sapiens, Epithelial cell, confluent cultures, 24 h, read-out: IC50 ± SD, AGS. Here is the method:
(§4) The human cell lines, MRC-5 normal lung fibroblasts (CCL-171), AGS gastric epithelial adenocarcinoma cells (CRL-1739) and HepG2 hepatocellular carcinoma cells (HB-8065) were obtained from the American Type Culture Collection (ATCC, Manasas, VA, USA). The cells were grown as monolayers in the following media: MRC-5 and HepG2 in MEM and AGS in Ham F-12. The MEM medium contained 2 mM L-glutamine, 1 mM sodium pyruvate and 1.5 g/L sodium bicarbonate. Ham F-12 was supplemented with 2 mM L-glutamine and 1.5 g/L sodium bicarbonate. Both media were supplemented with 10% heat inactivated fetal bovine serum, 100 IU/mL penicillin and 100 µg/mL streptomycin in a humidified incubator with 5% CO2 in air at 37 °C. For the experiments, cells were plated at a density of 25,000 cells/mL in 96-well plates. […] Compounds were first dissolved in DMSO and then in medium. The final concentration of DMSO in the test medium and controls was 1%. […] The cell viability for each compound was calculated comparing the cell viability of the untreated controls (100%) with the cell viability of the different concentrations of each compound. Each concentration was tested in quadruplicate together with the control and repeated three times in separate experiments. Cell viability was determined at the end of the incubation by means of the MTT reduction assay. Results were converted to percentage of controls, and the IC50 values were graphically obtained from the dose-response curves. Culture media, antibiotics and fetal bovine serum were obtained from Invitrogen Corp. (Waltham, MA, USA). Other reagents were purchased from Sigma Chemical Co. For the animal experiments all values are presented as median ± SEM. Drug-induced changes were statistically estimated using the Kruskall-Wallis test for comparison between groups and testing, and the Mann-Whitney test was used in the independent data for individual comparisons. The effects were considered significant if p ≤ 0.05. For cytotoxicity experiments, each concentration was tested in quadruplicate together with the control and repeated three times in different experiments. Results are expressed as IC50 values (µM) ± S.D.

The subject of data set [5] is mice ear edema induced by arachidonic acid. Kind of data set: Topical anti-inflammatory effect, arachidonic acid (AA) induced ear edema in mice. Format: in vivo. The conditions noted are these: 3.2 µmol/mouse; for inhibition in vivo at 3.2 µmol/animal: n = 8, read-out: % TAAA ± SEM (percent reduction of the ear edema, arachidonic acid). How it is done: as §1, §2, §3

The subject of data set [6] is lung fibroblasts (MRC-5). Description: Cytotoxicity, MTT reduction assay, MRC-5. Format: cell-based. The conditions noted are these: Homo sapiens, MRC5, confluent cultures, 24 h, read-out: IC50 ± SD, MRC-5. How it is done: as §4
For orientation: Tetrazolium assays rely on reduction of a dye to a coloured formazan, in cell work by metabolically active cells.

For data set [7], the system named is human lung fibroblasts (MRC-5), gastric epithelial cells (AGS) and hepatocytes HepG2. Kind of data set: Cytotoxicity, MTT reduction assay, summary over the three cell lines. Format: cell-based. The conditions noted are these: for IC50: Homo sapiens, MRC-5, AGS and HepG2, 24 h, MTT, read-out: IC50 values, range over the three cell lines; for Cytotoxic effect, in words: MRC-5, AGS and HepG2. How it is done: as §4

Data set [8] has as its system acetic acid-induced writhing. Also on record: method as in PMID 12767601. The conditions noted are these: oral administration, ibuprofen at 40 mg/kg; cited from earlier work.

Regarding ibuprofen propyl glucopyranoside ester, in data set [1], the “Reduction of xylene-induced ear edema” value is listed as 52.7%.
A word on the IC50: it is the concentration needed to halve the response being measured. For the compound `C=C1CC[C@@H]2[C@](C)(CCC[C@]2(C)C(=O)O)[C@H]1CC[C@H](C)CCO` [Compound 2, imbricatolic acid, reference compound], the inhibition in vivo at 1.4 µmol/animal in data set [2] is 10.1 ± 4%. For the same compound, the half-inhibitory concentration (IC50) is 111 ± 7 µM in data set [3], 148 ± 9 µM in data set [4], 134 ± 7 µM in data set [6] and 111 to 148 µM in data set [7]. For the same compound, in data set [5] (1 h after AA), the inhibition in vivo at 3.2 µmol/animal was 5 ± 3%. The “Cytotoxic effect, in words” value in data set [7] is recorded as “moderate”.
As to `CC(C)c1cc2c(cc1O)[C@@]1(C)CCCC(C)(C)[C@@H]1CC2` [Compound 1, ferruginol, reference compound], the “% TATPA ± SEM (percent reduction of the ear edema, TPA)” value in data set [2] (n = 8) was 20.4 ± 3.1 *^,a %. For the same compound, the inhibition in vivo at 1.4 µmol/animal in data set [2] stood at 20.4 ± 3.1%. The IC50 is 39 ± 3 µM in data set [3], 29 ± 1 µM in data set [4], 31 ± 2 µM in data set [6] and 29 to 39 µM in data set [7]. Moreover, the “% TAAA ± SEM (percent reduction of the ear edema, arachidonic acid)” value in data set [5] (1 h after AA, n = 8) was 21.0 ± 2.1 *^,a %. The inhibition in vivo at 3.2 µmol/animal in data set [5] (1 h after AA) is 21 ± 2.1%. For the same compound, in data set [7], the “Cytotoxic effect, in words” value is recorded as “strong”.
Turning to `C=C1CCC2[C@](C)(CCC[C@]2(C)C(=O)O)[C@H]1CC[C@@H](C)CCOC(=O)[C@@H](C)c1ccc2cc(OC)ccc2c1` (some centres unmarked) [Compound 10, Imbricatol-15-yl naproxenate], in data set [2], the inhibition in vivo at 1.4 µmol/animal worked out at 37.7 ± 3.3%. The IC50 in data set [3] was 69 ± 4 µM; in data set [4], 29 ± 2 µM; in data set [6], 37 ± 2 µM; in data set [7], 29 to 69 µM. The inhibition in vivo at 3.2 µmol/animal in data set [5] (1 h after AA) is 16.3 ± 3.8%.
In the case of `COc1ccc2cc([C@H](C)C(=O)Oc3cc4c(cc3C(C)C)CCC3C(C)(C)CCC[C@]43C)ccc2c1` (some centres unmarked) [Compound 7, Ferruginyl naproxenate], the inhibition in vivo at 1.4 µmol/animal in data set [2] turned out to be 26.8 ± 3.8%. Besides, the IC50 in data set [3] was more than 1000 µM; in data set [4] it was 874 ± 49 µM; in data set [6], 945 ± 56 µM; in data set [7], not below 874 µM. The inhibition in vivo at 3.2 µmol/animal in data set [5] (1 h after AA) stood at 26.6 ± 4.1%.
Take `CC(C)Cc1ccc([C@H](C)C(=O)Oc2cc3c(cc2C(C)C)CCC2C(C)(C)CCC[C@]32C)cc1` (mixture of isomers) [Compound 6, Ferruginyl ibuprofenate]: the inhibition in vivo at 1.4 µmol/animal in data set [2] was found to be 47.9 ± 4.6%. The half-maximal inhibitory concentration (IC50) is 874 ± 34 µM in data set [3], more than 1000 µM in data set [4], more than 1000 µM in data set [6] and not below 874 µM in data set [7]. Further, the inhibition in vivo at 3.2 µmol/animal in data set [5] (1 h after AA) turned out to be 14.9 ± 7.1%.
For `CC(C)Cc1ccc(C(C)C(=O)O)cc1` (centres unmarked) [Compound 4, ibuprofen, reference compound], the inhibition in vivo at 1.4 µmol/animal in data set [2] came out at 56.2 ± 3.4%. The Reduction of stretches in data set [8] is listed as 77.6%. For the same compound, the “Reduction of xylene-induced ear edema” value in data set [1] is reported as 45.9%. For the same compound, the IC50 in data set [3], in data set [4], in data set [6] and in data set [7] was more than 1000 µM in each case. For the same compound, the “Activity in the AA model, in words” value in data set [5] is “inactive”. Also, the inhibition in vivo at 3.2 µmol/animal in data set [5] (1 h after AA) was 7.2 ± 5.5%.

(Values after PMC6272242, “Topical Anti-inflammatory Activity of New Hybrid Molecules of Terpenes and Synthetic Drugs” (Molecules, 2015).)
